PubChem BioAssay (NCI)
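How tested: cells in 96-well plates exposed to compound for 48 hours at five concentrations. TGI: total growth inhibition.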

What was measured:
Experiment in all cases: NCI tumour cell line growth inhibition, 48 h
[1] = system: 786-0 renal
[2] = system: A498 renal
[3] = system: A549 NSCLC
[4] = system: ACHN renal
[5] = system: BT-549 breast
[6] = system: CAKI-1 renal
[7] = system: CCRF-CEM leukemia
[8] = system: COLO 205 colon
[9] = system: EKVX NSCLC
[10] = system: HCC-2998 colon
[11] = system: HCT-116 colon
[12] = system: HCT-15 colon
[13] = system: HL-60(TB) leukemia
[14] = system: HOP-62 NSCLC
[15] = system: HOP-92 NSCLC
[16] = system: HS 578T breast
[17] = system: HT29 colon
[18] = system: IGROV1 ovarian
[19] = system: K-562 leukemia
[20] = system: KM12 colon
[21] = system: LOX IMVI melanoma
[22] = system: M14 melanoma
[23] = system: MALME-3M melanoma
[24] = system: MDA-MB-231 breast
[25] = system: MDA-MB-435
[26] = system: MDA-N
[27] = system: MOLT-4 leukemia
[28] = system: NCI-H226 lung
[29] = system: NCI-H23 lung
[30] = system: NCI-H460 lung
[31] = system: NCI-H522 lung
[32] = system: NCI/ADR-RES ovarian
[33] = system: OVCAR-3 ovarian
[34] = system: OVCAR-4 ovarian
[35] = system: OVCAR-5 ovarian
[36] = system: OVCAR-8 ovarian
[37] = system: PC-3 prostate
[38] = system: RPMI-8226 leukemia
[39] = system: RXF 393 renal
[40] = system: SF-268 CNS
[41] = system: SF-295 CNS
[42] = system: SF-539 CNS
[43] = system: SK-MEL-2 melanoma
[44] = system: SK-MEL-28 melanoma
[45] = system: SK-MEL-5 melanoma
[46] = system: SK-OV-3 ovarian
[47] = system: SN12C renal
[48] = system: SNB-19 CNS
[49] = system: SNB-75 CNS
[50] = system: SR leukemia
[51] = system: SW-620 colon
[52] = system: T-47D breast
[53] = system: TK-10 renal
[54] = system: U251 CNS
[55] = system: UACC-257 melanoma
[56] = system: UO-31 renal
[57] = system: DU-145 prostate
[58] = system: MCF7 breast
[59] = system: UACC-62 melanoma

With `[N-]=[N+]=Nc1c(N2CCOCC2)c(Cl)nc2ccccc12` as the compound, how does the TGI [1] read?
Its TGI is > 100 µM.

And the TGI [2]?
Its TGI is > 100 µM.

What about the TGI [3] of the same compound?
The TGI was > 100 µM.

And the TGI [4]?
Its TGI is > 100 µM.

What about the TGI [5] of the same compound?
Its TGI is > 100 µM.

And the TGI [6]?
The TGI was > 100 µM.

What about the TGI [7] of the same compound?
Its TGI is > 100 µM.

And the TGI [8]?
The TGI was > 100 µM.

What about the TGI [9] of the same compound?
The TGI was > 100 µM.

What about the TGI [10] of the same compound?
The TGI was > 100 µM.

And the TGI [11]?
Its TGI is > 100 µM.

And the TGI [12]?
The TGI was > 100 µM.

What about the TGI [13] of the same compound?
The TGI was > 100 µM.

What about the TGI [14] of the same compound?
Its TGI is > 100 µM.

What about the TGI [15] of the same compound?
Its TGI is > 100 µM.

What about the TGI [16] of the same compound?
The TGI was > 100 µM.

What about the TGI [17] of the same compound?
Its TGI is 72.9 µM.

What about the TGI [18] of the same compound?
Its TGI is > 100 µM.

What about the TGI [19] of the same compound?
The TGI was > 100 µM.

What about the TGI [20] of the same compound?
Its TGI is 88.6 µM.

What about the TGI [21] of the same compound?
The TGI was > 100 µM.

And the TGI [22]?
Its TGI is > 100 µM.

What about the TGI [23] of the same compound?
Its TGI is > 100 µM.

And the TGI [24]?
The TGI was > 100 µM.

And the TGI [25]?
Its TGI is > 100 µM.

And the TGI [26]?
Its TGI is > 100 µM.

What about the TGI [27] of the same compound?
The TGI was > 100 µM.

And the TGI [28]?
The TGI was > 100 µM.

And the TGI [29]?
Its TGI is > 100 µM.

And the TGI [30]?
Its TGI is > 100 µM.

And the TGI [31]?
Its TGI is > 100 µM.

What about the TGI [32] of the same compound?
The TGI was > 100 µM.

And the TGI [33]?
Its TGI is > 100 µM.

What about the TGI [34] of the same compound?
Its TGI is > 100 µM.

What about the TGI [35] of the same compound?
Its TGI is > 100 µM.

What about the TGI [36] of the same compound?
Its TGI is > 100 µM.

And the TGI [37]?
The TGI was > 100 µM.

What about the TGI [38] of the same compound?
Its TGI is > 100 µM.

And the TGI [39]?
The TGI was > 100 µM.

What about the TGI [40] of the same compound?
The TGI was > 100 µM.

What about the TGI [41] of the same compound?
The TGI was > 100 µM.

What about the TGI [42] of the same compound?
Its TGI is > 100 µM.

And the TGI [43]?
The TGI was > 100 µM.

What about the TGI [44] of the same compound?
The TGI was > 100 µM.

What about the TGI [45] of the same compound?
The TGI was 49.6 µM.

And the TGI [46]?
The TGI was > 100 µM.

And the TGI [47]?
Its TGI is > 100 µM.

And the TGI [48]?
Its TGI is > 100 µM.

And the TGI [49]?
The TGI was > 100 µM.

And the TGI [50]?
The TGI was > 100 µM.

What about the TGI [51] of the same compound?
The TGI was > 100 µM.

And the TGI [52]?
Its TGI is > 100 µM.

And the TGI [53]?
The TGI was > 100 µM.

What about the TGI [54] of the same compound?
The TGI was > 100 µM.

What about the TGI [55] of the same compound?
The TGI was 78.3 µM.

And the TGI [56]?
The TGI was > 100 µM.

Which results are given for `CC(C)(C)c1cc(OCc2nnc3sc(-c4ccc(Cl)cc4)nn23)c(Cl)cc1OCc1nnc2sc(-c3ccc(Cl)cc3)nn12`?
TGI [1]: 16.5 µM; TGI [2]: 26.1 µM; TGI [3]: 20.4 µM; TGI [4]: 24.4 µM; TGI [5]: 34.6 µM; TGI [6]: 11.4 µM; TGI [8]: 29.3 µM; TGI [57]: 31.3 µM; TGI [9]: 97.9 µM; TGI [10]: 9.72 µM; TGI [11]: 26 µM; TGI [12]: 38.8 µM; TGI [13]: 7.36 µM; TGI [14]: 51.4 µM; TGI [15]: 16.3 µM; TGI [16]: > 100 µM; TGI [17]: 83.6 µM; TGI [18]: 21.4 µM; TGI [19]: 12.5 µM; TGI [20]: 11.1 µM; TGI [21]: 54.2 µM; TGI [22]: 88.6 µM; TGI [23]: 21.8 µM; TGI [58]: 10.9 µM; TGI [24]: 38.3 µM; TGI [26]: 3.46 µM; TGI [27]: 31.2 µM; TGI [28]: 54.3 µM; TGI [29]: 20.6 µM; TGI [30]: 12.9 µM; TGI [31]: 29.9 µM; TGI [32]: 35.6 µM; TGI [33]: 8.73 µM; TGI [34]: 57.8 µM; TGI [35]: 88.9 µM; TGI [36]: 19.8 µM; TGI [37]: > 100 µM; TGI [38]: 23.6 µM; TGI [39]: 19.3 µM; TGI [40]: > 100 µM; TGI [41]: 18.2 µM; TGI [42]: 15.2 µM; TGI [43]: 44.9 µM; TGI [44]: 33.3 µM; TGI [45]: 3.47 µM; TGI [46]: 27 µM; TGI [47]: > 100 µM; TGI [48]: 87.6 µM; TGI [49]: 9.8 µM; TGI [50]: 2.91 µM; TGI [51]: 32.9 µM; TGI [52]: 14.9 µM; TGI [53]: 36.8 µM; TGI [54]: 28.7 µM; TGI [55]: 40.7 µM; TGI [59]: 39.1 µM; TGI [56]: 26.1 µM
